Reference: article doi:10.1101/2025.02.17.638454, “Synergistic RAS-MAPK and AKT Activation in MYC-Driven Tumors via Adjacent PVT1 Rearrangements” (bioRxiv, 2025)
No end group written: not given here.

Experiments:
Format in all cases: cell-based, human
[1] = test system: MYC; assay: q-RT-PCR of MYC transcript in D458; conditions: D458, induction of HNB (-/+ Dox); n=3, unpaired t-test
Protocol: Total RNA was extracted with the TRIzol (Roche, Indianapolis, IN) as described by the manufacturer and complementary DNA synthesis, 1 μg of total RNA was reverse transcribed by using the GoScriptTM Reverse Transcription Mix, Random Primer Protocol (Promega, Madison, WI). Real-time PCR was run in triplicate using PowerUpTM SYBRTM Green Master Mix (Thermo Fisher Scientific), following the manufacturer’s instructions. Real-time PCR amplification monitoring was performed using the CFX96 Touch Real-Time PCR Detection System (Bio-Rad). Data were expressed as relative mRNA levels normalized to the GAPDH, served as endogenous normalization control expression levels in each sample, and are represented as mean ± standard error of the mean between 2 independent experiments unless otherwise indicated in the figure legend. The primer sequences are listed in the Supplementary Table.
(§1) The HNB ORF and eGFP (control) were cloned in an inducible lentivirus expression, TRE-gateway plasmid (pLIX_403, Addgene, #41395). Lentivirus was produced in HEK293T cells using the protocol described above. […] The protein lysates were collected and quantified using the previously described protocol. […] Bound proteins were detected with horseradish-peroxidase–conjugated secondary antibodies (Cell Signaling Technologies) and SuperSignal West Femto (Thermo Fisher Scientific). […]

[2] = test system: MYC; assay: Western blot of MYC in D458
Protocol: For whole-cell lysate, the cell pellet was resuspended in RIPA buffer (Cell Signaling Technologies, Danvers, MA) supplemented with a protease inhibitor cocktail (Cell Signaling Technologies) and incubated on ice for 20 minutes. The lysate was then centrifuged at 14,000 revolutions/minute for 10 minutes at 4°C, and the supernatant was harvested. Protein concentration was quantified by BCA Protein Assay Kit (Thermo Fisher Scientific) as per kit protocol. Next, 20 μg of whole-cell lysate was electrophoresed on a 4%–20% gradient polyacrylamide gel with SDS (Bio-Rad, Hercules, CA) and electroblotted onto polyvinylidene difluoride membranes (Bio-Rad). Membranes were blocked in Tris-buffered saline with 5% nonfat milk and 0.1% Tween and probed with antibodies. Bound proteins were detected with horseradish-peroxidase–conjugated secondary antibodies (Cell Signaling Technologies) and SuperSignal West Femto (Thermo Fisher Scientific). Antibodies used were anti-c-MYC (Cell Signaling Technology, 5605, anti-Phospho-c-MYC (Ser62) (Cell Signaling Technology, 13748), anti-β ACTIN (Cell Signaling Technology, 8457), anti-Phospho-p44/42 (Erk1/2) (Thr202/Tyr204) (Cell Signaling Technology, 4370), anti-p44/42 (Erk1/2) (Cell Signaling Technology, 4695), anti-Phospho-MEK1/2 (Ser217/221) (Cell Signaling Technology, 9154), anti-MEK1/2 (Cell Signaling Technology, 9122), anti-Phospho-p90RSK (Ser380) (Cell Signaling Technology, 11989), anti-RSK1/RSK2/RSK3 (Cell Signaling Technology, 9355), Anti-Rabbit IgG, HRP-linked Antibody (Cell Signaling Technology, 7074). Anti-FFX (Firefox) monoclonal antibodies were custom produced by Proteintech using FFX residues 13–104 as epitope.
The HNB ORF and eGFP (control) were cloned in an inducible lentivirus expression, TRE-gateway plasmid (pLIX_403, Addgene, #41395). Lentivirus was produced in HEK293T cells using the protocol described above. D458, NCI-H1792 and COLO 320DM cells were transfected with inducible HNB lentivirus and selected with 1 μg/mL concentration of Puromycin. Selected cells were seeded at a concentration of 4 × 10^5 cells per well. After 24 hours of seeding, the cells were treated with 1 μg/mL Doxycycline for 48 hours. The cells were then lysed using RIPA buffer and 1X protease inhibitor cocktail. The protein lysates were collected and quantified using the previously described protocol. 20 μg of whole-cell lysate was electrophoresed on a 4%–20% gradient polyacrylamide gel with SDS (Bio-Rad, Hercules, CA) and electroblotted onto polyvinylidene difluoride membranes (Bio-Rad). […] Bound proteins were detected with horseradish-peroxidase–conjugated secondary antibodies (Cell Signaling Technologies) and SuperSignal West Femto (Thermo Fisher Scientific). […]

[3] = test system: MYC; assay: Western blot of MYC in COLO-320DM; conditions: COLO320DM
Protocol: For whole-cell lysate, the cell pellet was resuspended in RIPA buffer (Cell Signaling Technologies, Danvers, MA) supplemented with a protease inhibitor cocktail (Cell Signaling Technologies) and incubated on ice for 20 minutes. The lysate was then centrifuged at 14,000 revolutions/minute for 10 minutes at 4°C, and the supernatant was harvested. Protein concentration was quantified by BCA Protein Assay Kit (Thermo Fisher Scientific) as per kit protocol. Next, 20 μg of whole-cell lysate was electrophoresed on a 4%–20% gradient polyacrylamide gel with SDS (Bio-Rad, Hercules, CA) and electroblotted onto polyvinylidene difluoride membranes (Bio-Rad). Membranes were blocked in Tris-buffered saline with 5% nonfat milk and 0.1% Tween and probed with antibodies. Bound proteins were detected with horseradish-peroxidase–conjugated secondary antibodies (Cell Signaling Technologies) and SuperSignal West Femto (Thermo Fisher Scientific). […]
as §1, with “#41395).” for “#41395). Lentivirus was produced in HEK293T cells using the protocol described above.”

[4] = test system: COLO-320DM cells; assay: Proliferation assay COLO-320DM; conditions: COLO320DM
[5] = test system: D458 cells; assay: Proliferation assay D458

Substance | MYC mRNA level [1] | MYC protein level ([2]; D458, induction of HNB (-/+ Dox)) | MYC protein level ([3]; induction of HNB (-/+ Dox)) | cellular proliferation ([4]; induction of HNB (-/+ Dox), P=0.0002) | cellular proliferation ([5]; D458, induction of HNB or HNB mutant (+/- Dox)) | MYC protein ([2]; D458, si.CircPVT1 vs si.Ctrl, n=3, unpaired t test) | MYC protein ([3]; si.CircPVT1 vs si.Ctrl, n=3, unpaired t test, <0.0001) | cellular proliferation ([4]; si.CircPVT1 vs si.Ctrl, n=3, two-way ANOVA, P<0.0001) | cellular proliferation ([5]; D458, transfection with si.CircPVT1 vs si.Ctrl, n=3, two-way ANOVA)
MKTQLGAVKGFLHV [HNB] | significantly reduced MYC expression at the mRNA as well as the protein levels | significantly reduced MYC expression at the mRNA as well as the protein levels | significantly reduced MYC expression at the mRNA as well as the protein levels | significantly reduced cellular proliferation | significantly reduced cellular proliferation |  |  |  | 
si.CircPVT1: siRNA targeting the junction sequence of CircPVT1, 5’-UGGGCUUGAGGCCUGAUCUUU-3’ (other strand not given here) |  |  |  |  |  | significant reduction of MYC protein | significant reduction of MYC protein | reduced cellular proliferation | reduced cellular proliferation
